Measured values taken from patent US8211935B2, “Heterocyclic derivatives for modulation of calcium channels” (Vertex Pharmaceuticals Incorporated, priority 2004, dated 2012).

Target: T1, CaV2.2 (Homo sapiens, UniProt Q00975)
T1 construct: expressed in transfected cells; host or cells: HEK293
Test: VIPR optical membrane potential assay with electrical stimulation
Assay type: cell-based
Conditions: not given
In short: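 HEK293 cells stably expressing CaV2.2, stained with CC2-DMPE (10 μM final) and oxonol voltage-sensitive dyes, compound added with BaCl2. Membrane potential response evoked by 3-5 s electrical stimulation. Read as background-subtracted 460/580 nm emission ratio, response R=Rf/Ri, normalized to mibefradil positive and no-drug negative controls.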

T1 sequence (Q00975 whole entry): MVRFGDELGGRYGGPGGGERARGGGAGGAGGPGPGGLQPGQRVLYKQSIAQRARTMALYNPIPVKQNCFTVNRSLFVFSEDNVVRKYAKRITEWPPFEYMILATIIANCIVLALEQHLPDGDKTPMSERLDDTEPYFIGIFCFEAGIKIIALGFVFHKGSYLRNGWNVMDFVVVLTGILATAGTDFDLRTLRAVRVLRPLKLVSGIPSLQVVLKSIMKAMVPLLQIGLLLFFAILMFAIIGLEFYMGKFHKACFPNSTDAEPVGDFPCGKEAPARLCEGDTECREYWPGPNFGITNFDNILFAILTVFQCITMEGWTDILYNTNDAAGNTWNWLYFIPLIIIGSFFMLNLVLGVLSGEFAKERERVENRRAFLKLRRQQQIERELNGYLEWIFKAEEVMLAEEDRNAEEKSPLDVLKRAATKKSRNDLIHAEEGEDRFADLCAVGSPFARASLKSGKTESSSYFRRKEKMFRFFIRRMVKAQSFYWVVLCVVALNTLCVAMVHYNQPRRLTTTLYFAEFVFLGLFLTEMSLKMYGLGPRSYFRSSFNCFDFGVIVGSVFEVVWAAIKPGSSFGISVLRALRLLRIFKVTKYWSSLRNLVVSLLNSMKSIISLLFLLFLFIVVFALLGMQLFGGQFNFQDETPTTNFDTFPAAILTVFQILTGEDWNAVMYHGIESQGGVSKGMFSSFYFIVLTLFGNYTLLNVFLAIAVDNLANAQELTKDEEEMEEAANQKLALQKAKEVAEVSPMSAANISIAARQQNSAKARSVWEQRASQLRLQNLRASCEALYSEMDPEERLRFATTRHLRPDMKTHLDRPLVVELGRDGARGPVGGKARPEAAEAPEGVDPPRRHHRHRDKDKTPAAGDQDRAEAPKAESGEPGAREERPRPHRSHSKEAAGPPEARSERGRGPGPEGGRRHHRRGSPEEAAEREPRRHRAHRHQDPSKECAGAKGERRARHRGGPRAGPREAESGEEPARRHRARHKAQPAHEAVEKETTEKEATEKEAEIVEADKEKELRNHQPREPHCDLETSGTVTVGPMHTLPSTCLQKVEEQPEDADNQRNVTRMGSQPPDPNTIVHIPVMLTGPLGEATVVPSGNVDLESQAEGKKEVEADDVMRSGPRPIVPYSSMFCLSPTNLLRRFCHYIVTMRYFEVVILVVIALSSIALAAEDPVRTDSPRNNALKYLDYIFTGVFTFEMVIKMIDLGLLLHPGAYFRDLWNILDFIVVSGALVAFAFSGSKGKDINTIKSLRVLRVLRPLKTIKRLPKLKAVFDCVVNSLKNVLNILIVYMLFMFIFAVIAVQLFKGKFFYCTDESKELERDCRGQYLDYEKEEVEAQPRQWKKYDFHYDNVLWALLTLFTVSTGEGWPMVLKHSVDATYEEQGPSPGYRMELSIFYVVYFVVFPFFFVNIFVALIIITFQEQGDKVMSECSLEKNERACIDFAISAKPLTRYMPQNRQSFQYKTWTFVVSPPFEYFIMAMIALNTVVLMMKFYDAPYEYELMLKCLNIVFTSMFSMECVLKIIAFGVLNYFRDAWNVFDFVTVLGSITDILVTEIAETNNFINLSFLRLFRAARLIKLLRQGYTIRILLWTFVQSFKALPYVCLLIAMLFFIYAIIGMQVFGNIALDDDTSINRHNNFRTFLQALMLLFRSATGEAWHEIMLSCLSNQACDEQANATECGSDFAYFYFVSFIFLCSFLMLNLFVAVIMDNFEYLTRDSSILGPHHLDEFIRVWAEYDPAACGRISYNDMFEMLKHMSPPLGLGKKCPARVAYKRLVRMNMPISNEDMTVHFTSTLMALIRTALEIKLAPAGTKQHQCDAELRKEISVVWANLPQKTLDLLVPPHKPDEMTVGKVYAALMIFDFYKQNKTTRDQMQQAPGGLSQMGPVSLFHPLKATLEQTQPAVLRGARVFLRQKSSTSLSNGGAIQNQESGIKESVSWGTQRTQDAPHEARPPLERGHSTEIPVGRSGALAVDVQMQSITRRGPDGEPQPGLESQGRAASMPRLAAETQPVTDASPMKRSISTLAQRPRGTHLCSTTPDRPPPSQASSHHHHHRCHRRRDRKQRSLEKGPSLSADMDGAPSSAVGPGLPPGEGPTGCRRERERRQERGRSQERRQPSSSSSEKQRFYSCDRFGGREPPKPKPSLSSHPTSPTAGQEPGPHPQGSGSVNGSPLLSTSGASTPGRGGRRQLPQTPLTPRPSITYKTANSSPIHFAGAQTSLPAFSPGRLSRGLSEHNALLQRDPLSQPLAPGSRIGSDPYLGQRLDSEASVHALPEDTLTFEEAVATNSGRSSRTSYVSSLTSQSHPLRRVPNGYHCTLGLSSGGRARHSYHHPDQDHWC
T1 sequence (P54284 whole entry partner): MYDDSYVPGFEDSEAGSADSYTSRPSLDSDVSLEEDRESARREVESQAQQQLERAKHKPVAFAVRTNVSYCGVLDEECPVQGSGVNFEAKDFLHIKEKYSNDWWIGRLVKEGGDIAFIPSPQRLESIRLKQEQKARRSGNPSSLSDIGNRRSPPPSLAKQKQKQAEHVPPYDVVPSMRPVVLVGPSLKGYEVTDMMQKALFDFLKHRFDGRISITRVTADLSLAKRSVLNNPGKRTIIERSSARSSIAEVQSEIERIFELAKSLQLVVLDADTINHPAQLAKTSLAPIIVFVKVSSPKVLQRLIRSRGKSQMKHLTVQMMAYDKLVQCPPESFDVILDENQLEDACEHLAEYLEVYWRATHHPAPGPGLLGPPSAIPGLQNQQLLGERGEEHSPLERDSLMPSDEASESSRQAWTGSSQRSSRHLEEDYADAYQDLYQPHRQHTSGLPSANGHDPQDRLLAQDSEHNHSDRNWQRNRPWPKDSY
T1 sequence (P54289 25-946 partner limits assumed): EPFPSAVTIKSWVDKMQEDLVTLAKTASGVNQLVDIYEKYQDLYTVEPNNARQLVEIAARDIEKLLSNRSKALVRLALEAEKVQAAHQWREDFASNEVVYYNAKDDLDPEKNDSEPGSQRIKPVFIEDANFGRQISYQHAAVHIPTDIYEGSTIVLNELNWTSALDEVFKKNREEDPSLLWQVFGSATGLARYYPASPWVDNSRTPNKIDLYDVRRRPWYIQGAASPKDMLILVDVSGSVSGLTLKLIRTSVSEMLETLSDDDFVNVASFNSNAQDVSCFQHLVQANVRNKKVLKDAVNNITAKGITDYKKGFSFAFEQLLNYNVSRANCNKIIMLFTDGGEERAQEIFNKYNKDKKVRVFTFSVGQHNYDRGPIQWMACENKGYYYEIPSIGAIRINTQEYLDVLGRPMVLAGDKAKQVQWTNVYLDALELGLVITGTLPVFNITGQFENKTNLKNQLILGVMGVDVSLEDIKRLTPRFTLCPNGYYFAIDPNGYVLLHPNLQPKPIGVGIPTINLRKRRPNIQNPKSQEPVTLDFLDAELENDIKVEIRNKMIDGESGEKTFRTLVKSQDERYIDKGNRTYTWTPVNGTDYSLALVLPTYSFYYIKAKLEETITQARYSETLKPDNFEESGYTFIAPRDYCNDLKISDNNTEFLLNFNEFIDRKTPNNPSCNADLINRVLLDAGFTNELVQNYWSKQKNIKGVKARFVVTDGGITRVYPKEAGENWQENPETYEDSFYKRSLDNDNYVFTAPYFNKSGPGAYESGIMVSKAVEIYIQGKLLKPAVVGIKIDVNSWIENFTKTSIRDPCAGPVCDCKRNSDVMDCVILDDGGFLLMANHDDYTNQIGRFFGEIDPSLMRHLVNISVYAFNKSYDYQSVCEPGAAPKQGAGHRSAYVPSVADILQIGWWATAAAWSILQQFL
T1 sequence (P54289 947-1103 partner limits assumed): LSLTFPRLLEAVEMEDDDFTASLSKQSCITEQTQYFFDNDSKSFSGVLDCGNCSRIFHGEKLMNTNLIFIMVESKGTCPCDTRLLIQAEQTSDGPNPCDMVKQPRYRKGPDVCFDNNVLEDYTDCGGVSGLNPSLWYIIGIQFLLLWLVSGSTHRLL

Compound Cc1c(C(=O)N2CCC3(CC2)OCCO3)oc2ccc(S(=O)(=O)N3CCOCC3)cc12 [compound 432] has an IC50 of less than 20 µM.

Same assay, conditions: Table 3, biological assay data; read-out: IC50

Cc1c(C(=O)NC2CC2)oc2ccc(S(=O)(=O)N3CCCC(F)(F)C3)cc12 [compound 426] and Cc1c(C(=O)NC2CCCCC2)oc2ccc(S(=O)(=O)N3CCCCC3)cc12 [compound 459] fall in the same range of IC50: 5 to 20 µM for the first, 5 to 20 µM for the second.

First: O=C(NC1CCCCC1)c1cc2cc(S(=O)(=O)N3CCCCCC3)ccc2o1 [compound 427]
Second: Cc1c(C(=O)NC2CCCCC2)oc2ccc(S(=O)(=O)N3CCCCCC3)cc12 [compound 446]
The IC50 of the first is lower: less than 5 µM for the first, 5 to 20 µM for the second. The first is the more potent here.

O=C(NC1CC1)c1cc2cc(NS(=O)(=O)c3ccccc3)ccc2[nH]1 [compound 428] and Cc1c(C(=O)NC2CC2)oc2ccc(S(=O)(=O)Nc3cccnc3)cc12 [compound 453] cannot be ordered by IC50: less than 20 µM for the first, less than 20 µM for the second.

O=C(NCC1CCCO1)c1cc2cc(S(=O)(=O)N3CCCCCC3)ccc2o1 (stereo not shown) [compound 429] and CC1CCN(S(=O)(=O)c2ccc3oc(C(=O)NCC4CCCO4)cc3c2)CC1 (stereo not shown) [compound 456] fall in the same range of IC50: 5 to 20 µM for the first, 5 to 20 µM for the second.

CC1CC(C)CN(S(=O)(=O)c2ccc3oc(C(=O)N(C)Cc4ccccc4)cc3c2)C1 (stereo not shown) [compound 430] and CC1CCN(S(=O)(=O)c2ccc3oc(C(=O)N(C)Cc4ccccc4)cc3c2)CC1 [compound 433] cannot be ordered by IC50: less than 5 µM for the first, less than 5 µM for the second.

Cc1c(C(N)=O)oc2ccc(S(=O)(=O)N3CCC(C)CC3)cc12 [compound 431] and Cc1c(C(=O)N(C(C)C)C(C)C)oc2ccc(S(=O)(=O)N3CCC(C)CC3)cc12 [compound 443] fall in the same range of IC50: 5 to 20 µM for the first, 5 to 20 µM for the second.

CC1CCN(S(=O)(=O)c2ccc3[nH]cc(C(=O)NC4CC4)c3c2)CC1 [compound 434] and CC1CCN(S(=O)(=O)c2ccc3[nH]c(C(=O)NC4CCCCC4)cc3c2)CC1 [compound 448] cannot be ordered by IC50: less than 20 µM for the first, 5 to 20 µM for the second.

CNC(=O)c1cc2cc(S(=O)(=O)N3CC(C)CC(C)C3)ccc2n1C (stereo not shown) [compound 435] and CC1CC(C)CN(S(=O)(=O)c2ccc3c(c2)cc(C(=O)N(C)C)n3C)C1 (stereo not shown) [compound 461] cannot be ordered by IC50: less than 5 µM for the first, less than 5 µM for the second.

CC1CCN(S(=O)(=O)c2ccc3[nH]c(C(=O)N4CCCCC4C)cc3c2)CC1 (stereo not shown) [compound 436] and CC1CCCCN1C(=O)c1cc2cc(S(=O)(=O)N3CCCCCC3)ccc2[nH]1 (stereo not shown) [compound 437] cannot be ordered by IC50: less than 5 µM for the first, less than 20 µM for the second.

First: CNC(=O)c1cc2cc(S(=O)(=O)N3CCC(C)CC3)ccc2o1 [compound 438]
Second: CNC(=O)c1cc2cc(S(=O)(=O)N3CC(C)CC(C)C3)ccc2o1 (stereo not shown) [compound 454]
The IC50 of the first is higher: 5 to 20 µM for the first, less than 5 µM for the second. The second is the more potent here.

CCOC(=O)N1CCN(C(=O)c2[nH]c3ccc(S(=O)(=O)N4CC(C)CC(C)C4)cc3c2C)CC1 (stereo not shown) [compound 439] and Cc1c(C(=O)N2CCCCC2)[nH]c2ccc(S(=O)(=O)N3CC(C)CC(C)C3)cc12 (stereo not shown) [compound 440] cannot be ordered by IC50: less than 5 µM for the first, less than 5 µM for the second.

Cc1c(C(=O)NCc2ccccc2)oc2ccc(S(=O)(=O)N3CC(C)CC(C)C3)cc12 (stereo not shown) [compound 441] and Cc1c(C(=O)NCCc2ccccc2)oc2ccc(S(=O)(=O)N3CCCC(C)C3)cc12 (stereo not shown) [compound 445] cannot be ordered by IC50: less than 5 µM for the first, less than 5 µM for the second.

CNC(=O)c1[nH]c2ccc(S(=O)(=O)N3CCCCCC3)cc2c1C [compound 442] and Cc1c(C(=O)N2CCCC2)[nH]c2ccc(S(=O)(=O)N3CCC(C)CC3)cc12 [compound 457] fall in the same range of IC50: 5 to 20 µM for the first, 5 to 20 µM for the second.

CCNC(=O)c1oc2ccc(S(=O)(=O)N(CC)CC)cc2c1C [compound 444] and CCN(CC)S(=O)(=O)c1ccc2oc(C(=O)NCC3CCOCC3)c(C)c2c1 [compound 458] cannot be ordered by IC50: less than 20 µM for the first, less than 20 µM for the second.

Cc1c(C(=O)NC2CC2)oc2ccc(S(=O)(=O)Nc3nccs3)cc12 [compound 447] and Cc1c(C(=O)NC2CCCCC2)oc2ccc(S(=O)(=O)N3CCC(C)CC3)cc12 [compound 465] cannot be ordered by IC50: less than 20 µM for the first, 5 to 20 µM for the second.

Compared with Cc1c(C(=O)N2CC(C)OC(C)C2)oc2ccc(S(=O)(=O)N3CCC(C)CC3)cc12 (stereo not shown) [compound 449], Cc1c(C(=O)N2CCC(C)CC2)oc2ccc(S(=O)(=O)N3CC(C)CC(C)C3)cc12 (stereo not shown) [compound 466] is lower in IC50: 5 to 20 µM for the first, less than 5 µM for the second. The second is the more potent here.

Compared with Cc1c(C(=O)NC(C)C)[nH]c2ccc(S(=O)(=O)N3CC(C)CC(C)C3)cc12 (stereo not shown) [compound 450], Cc1c(C(=O)N2CCCCC2)oc2ccc(S(=O)(=O)N3CC(C)CC(C)C3)cc12 (stereo not shown) [compound 451] is lower in IC50: 5 to 20 µM for the first, less than 5 µM for the second. The second is the more potent here.

Compared with CC1CC(C)CN(S(=O)(=O)c2ccc3c(c2)cc(C(=O)NCc2ccccc2)n3S(=O)(=O)c2ccccc2)C1 (stereo not shown) [compound 452], CC1CC(C)CN(S(=O)(=O)c2ccc3c(c2)cc(C(=O)N2CCCCC2)n3S(=O)(=O)C(C)C)C1 (stereo not shown) [compound 470] is higher in IC50: less than 5 µM for the first, 5 to 20 µM for the second. The first is the more potent here.

CC1CC(C)CN(S(=O)(=O)c2ccc3oc(C(=O)NC4CCCCC4)cc3c2)C1 (stereo not shown) [compound 455] and CCNC(=O)c1cc2cc(S(=O)(=O)N3CC(C)CC(C)C3)ccc2o1 (stereo not shown) [compound 469] cannot be ordered by IC50: less than 5 µM for the first, less than 5 µM for the second.

Cc1c(C(=O)N2CCCCC2)oc2ccc(S(=O)(=O)N3CCC(C)CC3)cc12 [compound 460] and Cc1c(C(=O)N2CCCCC2)oc2ccc(S(=O)(=O)N3CCCCCC3)cc12 [compound 468] fall in the same range of IC50: 5 to 20 µM for the first, 5 to 20 µM for the second.

Cc1c(C(=O)N2CCc3ccccc3C2)oc2ccc(S(=O)(=O)N3CCCCC3)cc12 [compound 462] and Cc1c(C(=O)N(C)Cc2ccccc2)oc2ccc(S(=O)(=O)N3CCC(C)CC3)cc12 [compound 464] cannot be ordered by IC50: less than 5 µM for the first, less than 5 µM for the second.

CCCN(CC1CC1)C(=O)c1cc2cc(S(=O)(=O)N3CC(C)CC(C)C3)ccc2n1C (stereo not shown) [compound 463] and Cc1c(C(=O)NCCC2CCOCC2)oc2ccc(S(=O)(=O)N3CCCC(C)C3)cc12 (stereo not shown) [compound 467] cannot be ordered by IC50: less than 5 µM for the first, less than 5 µM for the second.

System: not given
Test: not given
Conditions: neuropathic pain; cited from earlier work

For NCC1(CC(=O)O)CCCCC1 [Gabapentin], the “patients in whom the drug works” value is listed as 60%.
